Test results: patent US12043622B2, “Crystal form of compound for inhibiting the activity of CDK4/6 and use thereof” (Betta Pharmaceuticals Co., Ltd., priority 2019, dated 2024)
Like-named read-outs stand apart in the source and are kept apart here. Blank lines part the entries; values can stand above or below the compound they belong to.

Tests used:
[1] = Solid form conversion of amorphous and metastable forms; format: physicochemical; conditions: for Solid form stability under moisture: water/moisture, room temperature
CDK2/cyclin E = CDK2/cyclin E (Homo sapiens, UniProt P24941); assay: CDK subtype selectivity, 33P-ATP radiometric kinase assay; format: biochemical
From the text: (§1) The mechanism of this method is shown in formula (IV).
(§2) Data was processed with Prism4 Software (GraphPad), and the curve fitting formula was: Y=Bottom+(Top−Bottom)/(1+10^((Log IC50−X)*HillSlope)); wherein, Y is percent inhibition (%); X is logarithm of concentration of the inhibitor.

CDK9/cyclin T1 = CDK9/cyclin T1 (Homo sapiens, UniProt P50750); assay: as above; format: biochemical
Chain of CDK9/cyclin T1 (P50750 whole entry, species assumed): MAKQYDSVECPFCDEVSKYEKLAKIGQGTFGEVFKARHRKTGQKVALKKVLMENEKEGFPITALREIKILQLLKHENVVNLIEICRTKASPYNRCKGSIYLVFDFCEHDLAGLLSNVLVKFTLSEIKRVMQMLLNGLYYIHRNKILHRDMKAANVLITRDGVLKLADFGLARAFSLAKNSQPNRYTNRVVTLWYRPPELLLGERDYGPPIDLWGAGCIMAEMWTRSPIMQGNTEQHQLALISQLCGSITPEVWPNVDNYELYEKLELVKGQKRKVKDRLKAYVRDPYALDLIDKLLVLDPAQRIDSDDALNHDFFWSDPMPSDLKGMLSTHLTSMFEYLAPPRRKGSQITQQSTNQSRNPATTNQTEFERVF
Chain of CDK9/cyclin T1 (O60563 whole entry partner, species assumed): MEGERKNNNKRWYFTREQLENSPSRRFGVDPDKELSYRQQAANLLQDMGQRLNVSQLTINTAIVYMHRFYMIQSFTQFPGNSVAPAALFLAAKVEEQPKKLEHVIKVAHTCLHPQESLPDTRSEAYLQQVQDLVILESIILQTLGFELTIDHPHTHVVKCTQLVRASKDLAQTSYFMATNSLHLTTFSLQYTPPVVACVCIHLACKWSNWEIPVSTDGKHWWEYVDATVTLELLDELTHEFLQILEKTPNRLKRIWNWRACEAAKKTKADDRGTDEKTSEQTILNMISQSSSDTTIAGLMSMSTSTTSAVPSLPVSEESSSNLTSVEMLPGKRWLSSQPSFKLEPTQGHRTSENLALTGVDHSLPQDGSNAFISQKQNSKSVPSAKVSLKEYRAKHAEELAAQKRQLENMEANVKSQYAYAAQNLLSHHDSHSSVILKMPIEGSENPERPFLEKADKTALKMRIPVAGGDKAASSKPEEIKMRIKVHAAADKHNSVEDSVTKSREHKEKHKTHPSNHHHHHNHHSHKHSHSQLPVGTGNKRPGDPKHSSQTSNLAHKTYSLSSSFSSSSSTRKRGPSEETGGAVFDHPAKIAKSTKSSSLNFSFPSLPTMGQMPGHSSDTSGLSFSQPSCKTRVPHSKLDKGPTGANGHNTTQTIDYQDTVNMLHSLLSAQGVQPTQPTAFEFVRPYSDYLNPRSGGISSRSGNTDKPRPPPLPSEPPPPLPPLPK
From the text: as §1, §2

[2] = Solubility in water at room temperature; format: physicochemical; conditions: for Classification of solubility: classes of the Chinese Pharmacopoeia (2015); for solubility: thermodynamic from solid
[3] = Crystal form long-term stability, impurities by HPLC; format: physicochemical; conditions: for Content > 0.1% Number of unknown impurities (s) / Maximum single impurity content (%) / Total impurity content (%): 25° C.±2° C., RH 60%±10%, HPLC
[4] = Pharmacokinetic experiment in SD rats, plasma by LC-MS/MS; format: in vivo; conditions: both sexes, Sprague-Dawley (SD), rat, PO, 30 mg/kg
Procedure: A total of 12 SD rats were divided into two groups, 6 in each group, each half of male and female.
In the above plasma sample, protein was precipitated by acetonitrile, the supernatant was diluted 3 times with water, and 5 μL was detected by LC-MS/MS, the results of experiment was shown in table 10: […]

[5] = Stability of the crystal form, checked by XRD; format: physicochemical
Procedure: In one embodiment of the invention, XRD analysis of the small sample (batch number: 1072P04-A14S01) was performed by SoliPharmausing Bruker D8 Advance Diffractometer.

[6] = Dynamic moisture sorption (DVS); format: physicochemical
From the text: The instruments and methods of Dynamic moisture adsorption in the present invention was shown in table 7, the results of DVS was shown in table 8.

SMILES: CCN1CCN(Cc2ccc(Nc3ncc(F)c(-c4cc(F)c5nc6n(c5c4)[C@H](C)CCC6)n3)nc2)CC1.CS(=O)(=O)O [amorphous form of compound III]
- Solid form stability on scale-up ([1]; scaled up to 50 mg): unstable

SMILES: CCN1CCN(Cc2ccc(Nc3ncc(F)c(-c4cc(F)c5nc6n(c5c4)[C@H](C)CCC6)n3)nc2)CC1.O=C(O)C(O)C(O)C(=O)O [amorphous form of compound II]
- Solid form stability under moisture [1]: readily converted to the crystal form B of compound II
- Solid form stability under moisture ([1]; listed as amorphous form of Compound II): readily forms Form B of Compound II

SMILES: CCN1CCN(Cc2ccc(Nc3ncc(F)c(-c4cc(F)c5nc6n(c5c4)[C@H](C)CCC6)n3)nc2)CC1 [compound 2b]
- IC50 (CDK2/cyclin E; read-out: IC50 CDK2/cyclin E): 0.441 µM
- IC50 (CDK9/cyclin T1; read-out: IC50 CDK9/cyclin T1): 0.649 µM

SMILES: CCN1CCN(Cc2ccc(Nc3ncc(F)c(-c4cc(F)c5nc6n(c5c4)[C@H](C)CCC6)n3)nc2)CC1 [compound I, (R)—N-(5-((4-ethylpiperazin-1-yl)methyl)pyridin-2-yl)-5-fluoro-4-(6-fluoro-1-methyl-1,2,3,4-tetrahydrobenzo[4,5]imidazo[1,2-a]pyridin-8-yl)pyrimidin-2-amine]
- IC50 (CDK2/cyclin E; stated jointly for CDK1/2/7/9, read-out: IC50 for inhibiting CDK2): > 0.4 µM
- IC50 (CDK9/cyclin T1; stated jointly for CDK1/2/7/9, read-out: IC50 for inhibiting CDK9): > 0.4 µM
- Classification of solubility [2]: Very little soluble
- solubility [2]: < 1 mg/mL
- Content > 0.1% Number of unknown impurities (s) ([3]; 0 month): 0
- Maximum single impurity content (%) ([3]; 0 month): 0.04%
- Total impurity content (%) ([3]; 0 month): 0.11%
- Content > 0.1% Number of unknown impurities (s) ([3]; 3 month): 0
- Maximum single impurity content (%) ([3]; 3 month): 0.10%
- Total impurity content (%) ([3]; 3 month): 0.17%
- Maximum single impurity content (%) ([3]; 18 month): 0.22%
- Total impurity content (%) ([3]; 18 month): 1.0%
- AUC(0-t) [4]: 27700 ng·h/mL

SMILES: CCN1CCN(Cc2ccc(Nc3ncc(F)c(-c4cc(F)c5nc6n(c5c4)[C@H](C)CCC6)n3)nc2)CC1.O=C(O)C(O)C(O)C(=O)O [crystal form A of compound II]
- XRD pattern after storage (crystal form stability) ([5]; 25° C., 60% RH, 10 days): not changed
- XRD pattern after storage (crystal form stability) ([5]; 25° C., 60% RH, 10 days, listed as crystal form A of the compound II): unchanged
- XRD pattern after storage (crystal form stability) ([5]; 40° C., 75% RH, 10 days): not changed
- XRD pattern after storage (crystal form stability) ([5]; 40° C., 75% RH, 10 days, listed as crystal form A of the compound II): unchanged
- XRD pattern after storage (crystal form stability) ([5]; dried at 80° C., 24 h): not changed
- XRD pattern after storage (crystal form stability) ([5]; dried at 80° C., 24 h, listed as crystal form A of the compound II): unchanged
- Classification of solubility [2]: Readily-soluble
- solubility [2]: 100 to 200 mg/mL
- Content > 0.1% Number of unknown impurities (s) ([3]; 0 month): 0
- Maximum single impurity content (%) ([3]; 0 month): 0.05%
- Total impurity content (%) ([3]; 0 month): 0.10%
- Content > 0.1% Number of unknown impurities (s) ([3]; 3 month): 0
- Maximum single impurity content (%) ([3]; 3 month): 0.05%
- Total impurity content (%) ([3]; 3 month): 0.13%
- Content > 0.1% Number of unknown impurities (s) ([3]; 18 month): 0
- Maximum single impurity content (%) ([3]; 18 month): 0.06%
- Total impurity content (%) ([3]; 18 month): 0.21%
- Amount of the impurities produced ([3]; after 18 months): less than 0.1%
- AUC(0-t) [4]: 47000 ng·h/mL

The remaining lines, values ahead:

- Weight change in the range of 0% RH-80% RH [6]: 5.5%
- Solid form stability on heating ([1]; heated to 180° C.): could be converted to crystal form A
SMILES: CCN1CCN(Cc2ccc(Nc3ncc(F)c(-c4cc(F)c5nc6n(c5c4)[C@H](C)CCC6)n3)nc2)CC1.O=C(O)C(O)C(O)C(=O)O [crystal form B of compound II]

- XRD pattern after storage (crystal form stability) ([5]; 25° C., 60% RH, 10 days): changed
- XRD pattern after storage (crystal form stability) ([5]; 40° C., 75% RH, 10 days): changed
- XRD pattern after storage (crystal form stability) ([5]; dried at 80° C., 24 h, listed as crystal form D of the compound III): unchanged
- Classification of solubility [2]: soluble
- solubility [2]: 50 to 100 mg/mL
SMILES: CCN1CCN(Cc2ccc(Nc3ncc(F)c(-c4cc(F)c5nc6n(c5c4)[C@H](C)CCC6)n3)nc2)CC1.CS(=O)(=O)O [crystal form D of compound III]

- Weight change in the range of 0% RH-80% RH [6]: 16.6%
- XRD pattern after storage (crystal form stability) ([5]; 25° C., 60% RH, 10 days): changed
- XRD pattern after storage (crystal form stability) ([5]; 40° C., 75% RH, 10 days): changed
- XRD pattern after storage (crystal form stability) ([5]; dried at 80° C., 24 h, listed as crystal form F the compound III): changed
SMILES: CCN1CCN(Cc2ccc(Nc3ncc(F)c(-c4cc(F)c5nc6n(c5c4)[C@H](C)CCC6)n3)nc2)CC1.CS(=O)(=O)O [crystal form F of compound III]
